Assay results: patent US12091389B2, “Pyrazolylbenzene-1,3-diols for diseases associated with g protein-coupled receptor 18 and in combination with transient receptor potential vanilloid 1” (Temple University—Of The Commonwealth System of Higher …, priority 2020, dated 2024)

Biological target: TRPV1 (Homo sapiens, UniProt Q8NER1)
Experiment: Calcium imaging (Fura-2 AM) in TRPV1-expressing HEK293 cells
Format: cell-based
Details: compound alone, 5 μM

Chain of TRPV1 (Q8NER1 whole entry): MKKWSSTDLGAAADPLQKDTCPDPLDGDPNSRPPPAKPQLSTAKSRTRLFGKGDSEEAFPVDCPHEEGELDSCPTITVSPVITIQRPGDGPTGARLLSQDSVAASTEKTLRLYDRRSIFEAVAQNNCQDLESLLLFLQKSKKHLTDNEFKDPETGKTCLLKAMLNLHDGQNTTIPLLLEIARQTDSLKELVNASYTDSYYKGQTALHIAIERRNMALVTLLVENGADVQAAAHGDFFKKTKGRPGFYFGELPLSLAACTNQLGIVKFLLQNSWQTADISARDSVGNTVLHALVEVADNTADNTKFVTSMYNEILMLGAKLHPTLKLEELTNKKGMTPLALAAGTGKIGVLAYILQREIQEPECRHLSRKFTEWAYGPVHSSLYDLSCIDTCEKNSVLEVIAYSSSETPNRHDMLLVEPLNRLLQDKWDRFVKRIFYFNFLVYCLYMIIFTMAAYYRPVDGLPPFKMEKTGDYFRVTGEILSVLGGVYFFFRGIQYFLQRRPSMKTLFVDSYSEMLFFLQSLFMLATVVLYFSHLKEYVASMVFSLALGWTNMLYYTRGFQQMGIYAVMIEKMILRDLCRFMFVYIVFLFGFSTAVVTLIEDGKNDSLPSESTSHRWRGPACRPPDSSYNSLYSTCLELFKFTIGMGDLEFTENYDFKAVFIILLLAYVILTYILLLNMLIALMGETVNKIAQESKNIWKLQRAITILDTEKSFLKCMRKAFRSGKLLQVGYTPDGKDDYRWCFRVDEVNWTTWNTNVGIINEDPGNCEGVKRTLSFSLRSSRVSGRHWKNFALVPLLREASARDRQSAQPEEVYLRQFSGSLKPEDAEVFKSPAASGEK

CCCCC/C=C\C/C=C\C/C=C\C/C=C\CCCC(=O)NCCO [Anandamide]
Effect on intracellular calcium (Ca^2+) in TPRV1-expressing cells: increases intracellular calcium
